Measurements published in US20130115256A1, “METHODS FOR TREATING OR PREVENTING VASCULAR GRAFT FAILURE” (priority 2010, published 2013).

Experiments:
P38MAPK = experiment: p38 MAPK radiometric kinase assay; type: biochemical; details: MMI-0100 100 μM; remaining kinase activity
Source text: A commercial radiometric assay service was used to test the specificity and potency of MMI-0100 ([…]; SEQ ID NO: 1) by measuring its half maximal inhibitory concentrations (IC50). This quantitative assay measures how much MK2 inhibitor (MMI-0100; […] (SEQ ID NO: 1)) is needed to inhibit 50% of a given biological process or component of a process (i.e., an enzyme, cell, or cell receptor). Specifically, in these assays, a positively charged substrate is phosphorylated with a radiolabeled phosphate group from an ATP if the kinase is not inhibited by an inhibitor peptide. The positively charged substrate then is attracted to a negatively charged filter membrane, quantified with a scintillation counter, and compared to a 100% activity control. […]
For the p38 MAPK (p38 Mitogen-Activated Protein Kinase) radiometric assay, 5-10 mU of p38 MAPK was incubated with 25 mM Tris pH 7.5, 0.02 mM EGTA, 0.33 mg/mL myelin basic protein (a substrath for p38 MAPK), 10 mM MgAcetate, and 10 μM of [y-^33P-ATP] in the final reaction volume of 25 μl. […] The washed P30 filtermat was dried and its radioactivity was measured by scintillation counter.
IC50 values for inhibitor peptides were determined using Millipore's IC50 Profiler Express service. […]

MKK3 = biological target: T1, MKK3 (Homo sapiens, UniProt P46734); experiment: MKK3 kinase activity (data not shown); type: biochemical; details: concentration that inhibits >95% of MK2
T1 sequence (P46734 1-347): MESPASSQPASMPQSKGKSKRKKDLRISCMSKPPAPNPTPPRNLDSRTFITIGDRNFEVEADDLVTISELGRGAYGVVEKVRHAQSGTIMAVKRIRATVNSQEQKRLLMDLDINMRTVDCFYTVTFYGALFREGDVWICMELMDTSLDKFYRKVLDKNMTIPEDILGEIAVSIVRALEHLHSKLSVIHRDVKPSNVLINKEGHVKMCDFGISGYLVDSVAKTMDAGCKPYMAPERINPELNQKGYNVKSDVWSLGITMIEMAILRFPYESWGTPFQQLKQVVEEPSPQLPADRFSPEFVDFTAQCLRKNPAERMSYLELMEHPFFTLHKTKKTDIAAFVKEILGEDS
Source text: A commercial radiometric assay service was used to test the specificity and potency of MMI-0100 ([…]; SEQ ID NO: 1) by measuring its half maximal inhibitory concentrations (IC50). This quantitative assay measures how much MK2 inhibitor (MMI-0100; […] (SEQ ID NO: 1)) is needed to inhibit 50% of a given biological process or component of a process (i.e., an enzyme, cell, or cell receptor). Specifically, in these assays, a positively charged substrate is phosphorylated with a radiolabeled phosphate group from an ATP if the kinase is not inhibited by an inhibitor peptide. The positively charged substrate then is attracted to a negatively charged filter membrane, quantified with a scintillation counter, and compared to a 100% activity control. ATP concentrations within 15 μM of the apparent Km for ATP were chosen since an ATP concentration near the Km may allow for the kinases to have the same relative amount of phosphorylation activity. The individual conditions for each radiometric assay are as follows.
IC50 values for inhibitor peptides were determined using Millipore's IC50 Profiler Express service. The IC50 value was estimated from a 10-point curve of one-half log dilutions. […]

[1] = test system: human smooth muscle cell (SMC; HASMC); experiment: MTS cell proliferation assay, human smooth muscle cells; type: cell-based
Description: The CellTiter 96® AQueous Non-Radioactive Cell Proliferation Assay (Promega) was used to assess drug effects on cell proliferation according to the manufacturer's instructions. Briefly, HAECs and HASMCs from early passages were grown to 80-90% confluence in 25 cm^2 tissue culture flasks in a 37° C./5% CO2 incubator prior to harvest. 200 μl of each type of cell suspension (at 20,000 cells/cm^2) was seeded onto separate 96-well plates to yield an approximate 60% confluence per well. Cells were allowed to adhere to the plate surface overnight, followed by addition of 20 ng/ml of TNF-α to stimulate production of inflammatory agents. After a 4-6 hour incubation period, MMI-0100 peptide drug ([…]; SEQ ID NO: 1) was added and cells incubated for another 20-24 hours. Each well was then supplemented with 100 μl of fresh medium and 200 μl of CellTiter 96® AQueous One Solution Reagent and incubated for an additional 1.5-2 hours prior to measuring absorbance of each well at 490 nm with a SoftMax®-equipped plate reader.
In order to determine the effect of pharmacological doses of MMI-0100 ([…]; SEQ ID NO: 1) on human endothelial cell (EC) and smooth muscle cell (SMC) proliferation, human EC and SMC cultures were treated with three concentrations (0.25 mM, 0.5 mM, and 1 mM) of MMI-0100 ([…] (SEQ ID NO: 1)) following pre-treatment with TNF-α.

[2] = test system: mouse lung endothelial cells (MLEC); experiment: MCP-1 production immunoassay; type: cell-based; details: even at high doses
Description: Monocyte Chemotractic Protein-1 (MCP-1) production from mouse lung endothelial cells (MLEC) was analyzed using conditioned culture medium by Quantikine® Mouse CCL/JE/MCP-1 Immunoassay (R&D Systems) following the manufacturer's instructions. Briefly, the assay employs a quantitative sandwich enzyme immunoassay technique in which a monoclonal antibody specific for MCP-1 has been pre-coated onto a microplaste. Standards and samples are pipetted into the wells and any MCP-1 present is bound by the immobilized antibody. After washing away any unbound substances, an enzyme-linked polyclonal antibody specific for MCP-1 is added to the wells. Following a wash to remove any unbound antibody-enzyme reagent, a substrate solution is added to the wells and color develops in proportion to the amount of MCP-1 bound in the initial step. The color development is stopped and the intensity of the color is measured at 450 nm, with wavelength correction at 540 nm or 570 nm.

## YARAAARQARAKALARQLGVAA [MMI-0100]
P38MAPK
  Percent Activity, P38MAPK: 60%
MKK3
  reduction in MKK3 activity: no reduction
[1]; 0.25 mM MMI-0100
  SMC proliferation compared to control (20 ng/ml TNF-α alone): slightly increased
[1]; 0.5 mM MMI-0100
  increase in SMC proliferation compared to control (20 ng/ml TNF-α alone): 12%
[1]; 1 mM MMI-0100
  increase in SMC proliferation compared to control (20 ng/ml TNF-α alone): 7%
[1]; 24 hours treatment
  SMC morphology, phase contrast images: no obvious morphological changes
[2]
  MCP-1 production: did not stimulate MCP-1 production
